According to patent US20230271956A1, “AMIDE DERIVATIVES” (Merck Patent GmbH, priority 2020, published 2023):

Columns and labels:
human rec ACSS2 = target: T1, human rec ACSS2 (Homo sapiens, UniProt Q9NR19); assay: Biochemical activity ACSS2 assay (AMP-Glo); conditions: human recombinant ACSS2, AMP-Glo, 180 min at 37° C.
T1 construct: myc (C); purchased Origene
Summary of the method: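 C-terminal myc-tagged human recombinant ACSS2 (1 nM) reacted with 100 µM ATP, 100 µM CoA and 500 µM acetate (final) in pH 7.5 Hepes buffer for 180 min at 37° C, compound in 10 concentrations from 30 µM. Released AMP detected by AMP-Glo luminescence. IC50 normalised to inhibitor-free reaction and 5 µM reference inhibitor.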

ACSS2 [1] = target: T2, ACSS2 (Homo sapiens, UniProt Q9NR19); assay: Cellular assay of 14C acetate incorporation into fatty acids (IC50 ACSS2 cellular lipids); format: cell-based; conditions: HCT-15 cells
T2 construct: endogenous fatty acid synthesis activity in the human HCT-15 cancer cell line; endogenous in cells; host or cells: HCT-15
Procedure: This protocol describes a cellular assay capable to quantify endogenous fatty acid synthesis activity in the human HCT-15 cancer cell line following the incorporation of extracellularly administered radiolabeled ^14C acetate with a scintillation proximity based read out on extracted fatty acids.
HCT-15 cells were grown in RPMI 1640 (Gibco) supplemented with 2 mM glutamine, 1 mM sodium pyruvate 10 mM HEPES and 10 % FCS (heat-inactivated) passaged every 2-3 days to remain a subconfluent, vital culture. A working cell bank was prepared with each aliquot containing 1x10^7 viable cells. After thawing, these cells are dilute immediately 1:20 in pre-warmed (37° C.) culture medium. Cells are collected by centrifugation at 200 x g for 5 min, and the supernatant is replaced by 30 mL of fresh culture medium per aliquot to obtain a cell suspension containing 350000 cells/ml. From this cell suspension 100 µL are dispersed into each well of a collagen coated 96 well plate, (black, clear bottom, PS, F-bottom, Greiner) and culture for 24 h (37° C., 5% CO2). After incubation the culture medium is removed and the wells are washed once with 100 µL PBS++ (supplemented with Mg^2+/ Ca^2+, Gibco) and 50 µL assay medium (RPMI 1640 + 10 mM HEPES) are added to each well. Compounds serial dilutions are prepared from 10 mM stock solutions in DMSO using a fixed dilution factor (usually 1:3). After preparation of the dilution series in DMSO, the individual dilutions are further diluted in the assay medium. This working dilution is prepared such, that the concentration is 7x of the final concentration in the assay. The maximal DMSO concentration in the final assay is 0.1%.
To each well 10 µL compound working dilution or DMSO blank are added and the cells are cultured for 2 h (37° C., 5% CO2). Then 10 µL AlamarBlue reagent (Invitrogen) containing 14 µCi/mL ^14C-acetate (Perkin Elmer) are added to each well (70 µl total volume) and cells are again cultured for 2 h. Cell viability is verified by measuring the AlamarBlue fluorescence (Tecan Safire, ex: 544 nm / em: 590 nm). After incubation the culture medium is removed and the wells are carefully washed once with cold 100 µL PBS++. For cell lysis and fatty acid recovery 50 µl 0.1 M NaOH and 0.1 % Triton-X100 are added per well. The plate is sealed with PlateLoc (clear peelable heat seal, Agilent) and incubate at 70° C. for 16-24 h. After cooling to room temperature, the plates are centrifuged for 1 min at 1000 rpm and the plate seals are removed. For acidification 150 µL 0.1 M HCl are added to each well, mixed and 150 µL of the mixture are transferred into a 96 well FlashPlate (Perkin Elmer). The plates are sealed with TopSeaI-a (Perkin Elmer). To allow for the fatty acid binding to the well surfaces the plates are incubate for 4 h at 70° C. After cooling to room temperature, the plates are centrifuged for 1 min at 1000 rpm and stored for 0.5-2 h at room temperature in the dark. Radioactivity from ^14C incorporation into fatty acids in the wells is measured as CPM count in a MicroBeta scintillation counter (Perkin Elmer).

ACSS2 [2] = target: T2, ACSS2; assay: Cellular assay of 14C acetate incorporation into histones (IC50 ACSS2 cellular histone); format: cell-based; conditions: HCT-15 cells
Summary of the method: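 Human HCT-15 cells preincubated 1 h with compound (0.25% DMSO final), then pulsed 3 h with 14C-acetate. Histones were acid-extracted (0.2 M HCl, overnight, 4° C) after Triton lysis in sodium-butyrate buffer; incorporated 14C counted by liquid scintillation (CPM) to give IC50.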

T2 sequence (Q9NR19 whole entry): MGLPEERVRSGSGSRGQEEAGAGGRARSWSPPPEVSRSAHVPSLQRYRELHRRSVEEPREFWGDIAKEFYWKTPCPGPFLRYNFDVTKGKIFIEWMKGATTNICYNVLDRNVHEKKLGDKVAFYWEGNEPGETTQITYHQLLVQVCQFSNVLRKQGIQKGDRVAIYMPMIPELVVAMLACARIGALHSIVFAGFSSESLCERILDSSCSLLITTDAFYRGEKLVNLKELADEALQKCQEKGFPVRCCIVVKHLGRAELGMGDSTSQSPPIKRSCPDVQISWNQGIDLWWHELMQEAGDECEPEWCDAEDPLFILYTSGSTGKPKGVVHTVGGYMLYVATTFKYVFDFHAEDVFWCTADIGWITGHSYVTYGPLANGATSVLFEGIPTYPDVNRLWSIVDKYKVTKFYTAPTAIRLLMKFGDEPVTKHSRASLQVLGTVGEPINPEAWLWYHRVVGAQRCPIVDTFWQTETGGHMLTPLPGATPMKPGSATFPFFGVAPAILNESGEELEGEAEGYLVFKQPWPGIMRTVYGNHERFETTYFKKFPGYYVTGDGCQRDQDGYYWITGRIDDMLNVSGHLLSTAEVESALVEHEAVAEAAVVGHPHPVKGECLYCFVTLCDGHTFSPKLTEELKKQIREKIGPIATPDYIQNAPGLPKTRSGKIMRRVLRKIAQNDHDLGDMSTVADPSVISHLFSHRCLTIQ
T1 sequence (Q9NR19 whole entry): as above

IC50 (human rec ACSS2) | IC50 (ACSS2 [1]) | IC50 (ACSS2 [2]) | Compound
1 to 10 nM | 10 to 100 nM | 0.01 to 1 nM | CCn1cnc(NC(=O)c2cc3c(nc2OC)nc(C(O)(c2ccccc2)c2cccs2)n3CC)n1 (racemic) [Compound 47, 1-ethyl-N-(1-ethyl-1H-1,2,4-triazol-3-yl)-2-[hydroxy(phenyl)(thiophen-2-yl)methyl]-5-methoxy-1H-imidazo[4,5-b]pyridine-6-carboxamide]
1 to 10 nM | 1 to 10 nM | 0.01 to 1 nM | CCn1cnc(NC(=O)c2cc3c(nc2OC)nc(C(O)(c2ccccc2)c2ccc(C)s2)n3CC)n1 (racemic) [Compound 51, 1-ethyl-N-(1-ethyl-1H-1,2,4-triazol-3-yl)-2-[hydroxy(5-methylthiophen-2-yl)phenylmethyl]-5-methoxy-1H-imidazo[4,5-b]pyridine-6-carboxamide]
10 to 100 nM | 0.01 to 1 nM | 10 to 100 nM | CCn1c(C(O)(c2ccccc2)c2ccccn2)nc2nc(OC)c(C(=O)Nc3ncn(CCO)n3)cc21 (racemic) [Compound 61, 1-ethyl-2-[hydroxy(phenyl)(pyridin-2-yl)methyl]-N-[1-(2-hydroxyethyl)-1H-1,2,4-triazol-3-yl]-5-methoxy-1H-imidazo[4,5-b]pyridine-6-carboxamide]
100 to 10000 nM | 10 to 100 nM | 1 to 10 nM | CCn1c(C(O)(c2ccccc2)c2ccccn2)nc2nc(OC)c(C(=O)Nc3ncn(CCOC)n3)cc21 (racemic) [Compound 65, 1-ethyl-2-[hydroxy(phenyl)(pyridin-2-yl)methyl]-5-methoxy-N-[1-(2-methoxyethyl)-1H-1,2,4-triazol-3-yl]-1H-imidazo[4,5-b]pyridine-6-carboxamide]
0.01 to 1 nM | 0.01 to 1 nM | 1 to 10 nM | CCn1cnc(NC(=O)c2cc3c(nc2OC)nc(C(O)(c2ccc(OC(F)F)cc2)c2ccccc2F)n3CC)n1 (single isomer, unassigned) [Compound 75]
1 to 10 nM | 1 to 10 nM | 1 to 10 nM | CCc1c(C(O)(c2ccccc2F)c2ccccc2F)nn2cc(Cl)c(C(=O)Nc3cnn(CC)c3)cc12 [Compound 12, 2-[Bis-(2-fluoro-phenyl)-hydroxy-methyl]-6-chloro-3-ethyl-pyrazolo[1,5-a]pyridine-5-carboxylic acid (1-ethyl-1H-pyrazol-4-yl)-amide]
10 to 100 nM | 100 to 10000 nM | 100 to 10000 nM | CCn1c(C(O)(c2ccccc2)c2ccccc2)nc2nc(OC)c(C(=O)Nc3ncn(CCN)n3)cc21 [Compound 46, N-[1-(2-aminoethyl)-1H-1,2,4-triazol-3-yl]-1-ethyl-2-(hydroxydiphenylmethyl)-5-methoxy-1H-imidazo[4,5-b]pyridine-6-carboxamide]
1 to 10 nM | 100 to 10000 nM | 1 to 10 nM | CCn1cnc(NC(=O)c2cc3c(nc2OC)nc(C(O)(c2ccccc2)c2ccccc2)n3CCO)n1 [Compound 50, N-(1-ethyl-1H-1,2,4-triazol-3-yl)-2-(hydroxydiphenylmethyl)-1-(2-hydroxyethyl)-5-methoxy-1H-imidazo[4,5-b]pyridine-6-carboxamide]
1 to 10 nM | 0.01 to 1 nM | 0.01 to 1 nM | CCn1cnc(NC(=O)c2cc3c(nc2OC)nc(C(O)(c2cccs2)c2cccs2)n3CC)n1 [Compound 55, 1-ethyl-N-(1-ethyl-1H-1,2,4-triazol-3-yl)-2-[hydroxybis(thiophen-2-yl)methyl]-5-methoxy-1H-imidazo[4,5-b]pyridine-6-carboxamide]
1 to 10 nM | 0.01 to 1 nM | 0.01 to 1 nM | CCc1coc(NC(=O)c2cc3c(nc2OC)nc(C(O)(c2ccccc2)c2ccccc2)n3CC)n1 [Compound 59, 1-ethyl-N-(4-ethyl-1,3-oxazol-2-yl)-2-(hydroxydiphenylmethyl)-5-methoxy-1H-imidazo[4,5-b]pyridine-6-carboxamide]
0.01 to 1 nM | 1 to 10 nM | 0.01 to 1 nM | CCc1cnc(NC(=O)c2cc3c(nc2OC)nc(C(O)(c2ccccc2)c2ccccc2)n3CC)o1 [Compound 60, 1-ethyl-N-(5-ethyl-1,3-oxazol-2-yl)-2-(hydroxydiphenylmethyl)-5-methoxy-1H-imidazo[4,5-b]pyridine-6-carboxamide]
10 to 100 nM | 1 to 10 nM | 10 to 100 nM | CCc1nnc(CNC(=O)c2cc3c(nc2OC)nc(C(O)(c2ccccc2)c2ccccc2)n3CC)o1 [Compound 62, 1-ethylN-[(5-ethyl-1,30,4-oxadiazol-2-yl)methyl]-2-(hydroxydiphenylmethyl)-5-methoxy-1H-imidazo[4,5-b]pyridine-6-carboxamide]
0.01 to 1 nM | 0.01 to 1 nM | 10 to 100 nM | CCc1nnc(NC(=O)c2cc3c(nc2OC)nc(C(O)(c2ccccc2)c2ccccc2)n3CC)o1 [Compound 64, 1-ethyl-N-(5-ethyl-1,30,4-oxadiazol-2-yl)-2-(hydroxydiphenylmethyl)-5-methoxy-1H-imidazo[4,5-b]pyridine-6-carboxamide]
100 to 10000 nM | 1 to 10 nM | 10 to 100 nM | CCn1c(C(O)(c2ccccc2)c2ccccc2)nc2nc(Cl)c(C(=O)Nc3cnn(CCO)c3)cc21 [Compound 66, 5-chloro-1-ethyl-2-(hydroxydiphenylmethyl)-N-[1-(2-hydroxyethyl)-1H-pyrazol-4-yl]-1H-imidazo[4,5-b]pyridine-6-carboxamide]
10 to 100 nM | 100 to 10000 nM | 10 to 100 nM | CCn1c(C(O)(c2ccccc2)c2ccccc2)nc2nc(OC)c(C(=O)Nc3ncn(CCOC)n3)cc21 [Compound 68, 1-ethyl-2-(hydroxydiphenylmethyl)-5-methoxy-N-[1-(2-methoxyethyl)-1H-1,2,4-triazol-3-yl]-1H-imidazo[4,5-b]pyridine-6-carboxamide]
1 to 10 nM | – | 1 to 10 nM | CCn1cnc(NC(=O)c2cnc3nc(C(O)(c4ccccc4F)c4ccccc4F)n(CC)c3c2)n1 [Compound 110, 2-[bis(2-fluorophenyl)(hydroxy)methyl]-1-ethyl-N-(1-ethyl-1H-1,2,4-triazol-3-yl)-1H-imidazo[4,5-b]pyridine-6-carboxamide]
10 to 100 nM | – | 10 to 100 nM | CCn1cc(NC(=O)c2cnc3nc(C(O)(c4ccccc4F)c4ccccc4F)n(CC)c3c2)cn1 [Compound 112, 2-[bis(2-fluorophenyl)(hydroxy)methyl]-1-ethyl-N-(1-ethyl-1H-pyrazol-4-yl)-1H-imidazo[4,5-b]pyridine-6-carboxamide]
10 to 100 nM | – | 10 to 100 nM | CCn1cc(NC(=O)c2cnc3nc(C(O)(c4ccccc4)c4ccccc4)n(CC)c3c2)cn1 [Compound 113, 1-ethyl-N-(1-ethyl-1H-pyrazol-4-yl)-2-(hydroxydiphenylmethyl)-1H-imidazo[4,5-b]pyridine-6-carboxamide]
10 to 100 nM | – | 10 to 100 nM | CCn1cc(NC(=O)c2cnc3nc(C(O)(c4ccccc4)c4ccccc4)n(C)c3c2)cn1 [Compound 114, N-(1-ethyl-1H-pyrazol-4-yl)-2-(hydroxydiphenylmethyl)-1-methyl-1H-imidazo[4,5-b]pyridine-6-carboxamide]

Compound | IC50 (human rec ACSS2) | IC50 (ACSS2 [1]) | IC50 (ACSS2 [2])
CCn1cnc(NC(=O)c2cc3c(nc2OC)nc(C(O)(c2ccccc2)c2ccccn2)n3CC)n1 (racemic) [Compound 69, 1-ethyl-N-(1-ethyl-1H-1,2,4-triazol-3-yl)-2-[hydroxy(phenyl)(pyridin-2-yl)methyl]-5-methoxy-1H-imidazo[4,5-b]pyridine-6-carboxamide] | 1 to 10 nM | 1 to 10 nM | 0.01 to 1 nM
